Columns and labels:
PPARγ [1] = target: T1, PPARγ (Mus musculus, UniProt P37238); experiment: Luciferase transcriptional reporter gene assay, pFA-PPARγ-LBD in BHK21 cells; type: cell-based; conditions: Gal4-PPARγ-LBD luciferase reporter, 24 hours incubation
T1 construct: expressed in transfected cells; host or cells: BHK21 (ATCC CCL10)
T1 sequence (P37238 174-475 isoform P37238-2): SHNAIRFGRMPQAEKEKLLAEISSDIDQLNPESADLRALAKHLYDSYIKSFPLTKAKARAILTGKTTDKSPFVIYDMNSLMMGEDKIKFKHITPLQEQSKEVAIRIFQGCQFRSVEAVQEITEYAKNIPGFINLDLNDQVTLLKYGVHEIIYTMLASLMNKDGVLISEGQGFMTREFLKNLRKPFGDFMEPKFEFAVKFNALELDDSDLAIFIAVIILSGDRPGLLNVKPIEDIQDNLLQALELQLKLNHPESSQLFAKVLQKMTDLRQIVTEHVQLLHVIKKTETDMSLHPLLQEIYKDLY
Text: (§1) Full-length cDNA clones for human PPARα and mouse PPARγ were obtained by RT-PCR from human adipose and mouse liver cRNA, respectively, cloned into plasmid vectors and verified by DNA sequencing. Bacterial and mammalian expression vectors were constructed to produce glutathione-s-transferase (GST) and Gal4 DNA binding domain proteins fused to the ligand binding domains (LBD) of PPARγ (aa 174 to 476) and PPARα (aa 167 to 469). To accomplish this, the portions of the cloned sequences encoding the LBDs were amplified from the full-length clones by PCR and then subcloned into the plasmid vectors. Final clones were verified by DNA sequence analysis.
(§2) Luciferase Transcriptional Reporter Gene Assays
(§3) Baby hamster kidney cells (BHK21 ATCC CCL10) were grown in DMEM medium containing 10% FBS at 37° C. in a 95%[…]:5%CO2 atmosphere. Cells were seeded in 6 well plates at a density of 10^5 Cells/well and then batch-transfected with either the pFA-PPARγ-LBD or pFA-PPARα-LBD expression plasmids plus the pFR-luc reporter plasmid and an expression plasmid encoding the secretable form of alkaline phosphatase (SEAP) as a normalization control. […] Six hours following transfection, the cells were harvested by trypsinization and seeded in 96 well plates at a density of 10^4 cells/well. After 24 hours to allow attachment of cells, the medium was removed and replaced with 100 ul of phenol red-free medium containing the test substances or control ligands (final. 0.1% DMSO). Following incubation of the cells for 24 hours with substances, 50 ul of the supernatant was recovered and analyzed for SEAP activity (Roche Molecular Biochemicals). The remainder of the supernatant was discarded, 50 ul PBS was added per well followed by one volume of Luciferase Constant-Light Reagent (Roche Molecular Biochemicals) to lyse the cells and initiate the luciferase reaction. Luminescence for both SEAP and luciferase was measured in a Packard TopCount. Luciferase activity was normalized to the SEAP control and transcriptional activation in the presence of a test substance was expressed as fold-activation over cells incubated in the absence of the substance. EC50 values were calculated using the XLfit program (ID Business Solutions Ltd. UK).

PPARγ [2] = target: T2, PPARγ (Mus musculus, UniProt P37238); experiment: PPARγ radioligand binding assay (scintillation proximity, GST-PPARγ-LBD); conditions: SPA beads
T2 construct: made in house; host or cells: E. coli BL21(pLysS)
T2 sequence (P37238 204-505): T1 sequence (P37238 174-475 isoform P37238-2)
Text: Background information on the performed assays can be found in: Nichols J S et al. “Development of a scintillation proximity assay for peroxisome proliferator-activated receptor gamma ligand binding domain”, (1998) Anal. Biochem. 257:112-119.
as §1
Induction, expression, and purification of GST-LBD fusion proteins were performed in E. coli strain BL21(pLysS) cells by standard methods (Ref: Current Protocols in Molecular Biology, Wiley Press, edited by Ausubel et al.).
Radioligand Binding Assay
PPARγ receptor binding was assayed in TKE50 (50 mM Tris-HCl, pH 8, 50 mM KCl, 2 mM EDTA, 0.1 mg/ml fatty acid-free BSA and 10 mM DTT). For each 96 well reaction an 140 ng equivalent of GST-PPARγ-LBD fusion protein was bound to 10 ug SPA beads (PharmaciaAmersham) in a final volume of 50 ul by shaking. The resulting slurry was incubated for 1 h at RT and centrifuged for 2 min at 1300 g. The supernatant containing unbound protein was removed and the semidry pellet containing the receptor-coated beads was resolved in 50 ul of TKE. For radioligand binding e.g. 10000 dpm 2(S)-(2-benzoyl-phenylamino)-3-{4-[1,1-ditritio-2-(5-methyl-2-phenyl-oxazol-4-yl)-ethoxy]-phenyl}-propionic acid in 50 ul were added, the reaction incubated at RT for 1 h and scintillation proximity counting performed. All binding assays were performed in 96 well plates and the amount of bound ligand measured on a Packard TopCount using OptiPlates (Packard). Nonspecific binding was determined in the presence of 10^−4 M unlabelled compound. Dose response curves were done in triplicates within a range of concentration from 10^−10 M to 10^−4 M.

PPARα = target: T3, PPARα (Homo sapiens, UniProt Q07869); experiment: Luciferase transcriptional reporter gene assay, pFA-PPARα-LBD in BHK21 cells; type: cell-based; conditions: Gal4-PPARα-LBD luciferase reporter, 24 hours incubation
T3 construct: expressed in transfected cells; host or cells: BHK21 (ATCC CCL10)
T3 sequence (Q07869 167-468 limits assumed): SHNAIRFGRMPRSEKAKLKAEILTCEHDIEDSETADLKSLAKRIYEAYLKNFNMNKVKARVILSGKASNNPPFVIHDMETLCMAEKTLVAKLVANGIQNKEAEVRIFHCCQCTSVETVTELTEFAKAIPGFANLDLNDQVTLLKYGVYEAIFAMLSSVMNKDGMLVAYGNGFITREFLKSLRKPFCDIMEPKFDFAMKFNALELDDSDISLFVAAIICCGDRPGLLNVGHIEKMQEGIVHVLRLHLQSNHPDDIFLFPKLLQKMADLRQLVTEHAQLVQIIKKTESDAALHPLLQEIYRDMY
Text: Full-length cDNA clones for human PPARα and mouse PPARγ were obtained by RT-PCR from human adipose and mouse liver cRNA, respectively, cloned into plasmid vectors and verified by DNA sequencing. […] To accomplish this, the portions of the cloned sequences encoding the LBDs were amplified from the full-length clones by PCR and then subcloned into the plasmid vectors. Final clones were verified by DNA sequence analysis.
as §2, §3

EC50 (PPARγ [1]) [nM]	IC50 (PPARγ [2]) [nM]	EC50 (PPARα) [nM]	Compound
1320	930	2700	CCCN(Cc1ccccc1C(=O)O)c1ccc(OCCc2nc(-c3ccccc3)oc2C)cc1 [Example 6, 2-[({4-[2-(5-methyl-2-phenyl-oxazol-4-yl)-ethoxy]-phenyl}-propyl-amino)-methyl]-benzoic acid]
2320	1080	2590	Cc1oc(-c2ccccc2)nc1CCOc1ccc(N(Cc2ccccc2C(=O)O)c2ccc(F)cc2)cc1 [Example 12, 2-[((4-fluoro-phenyl)-{4-[2-(5-methyl-2-phenyl-oxazol-4-yl)-ethoxy]-phenyl}-amino)-methyl]-benzoic acid]
1980	240	10000	Cc1oc(-c2ccccc2)nc1CCOc1ccc(N(Cc2c(F)cccc2C(=O)O)c2ccccc2)cc1 [Example 18, 3-fluoro-2-[({4-[2-(5-methyl-2-phenyl-oxazol-4-yl)-ethoxy]-phenyl}-phenyl-amino)-methyl]-benzoic acid]
1410	980	2050	COc1cccc(CN(c2ccccc2)c2ccc(OCCc3nc(-c4ccccc4)oc3C)cc2)c1C(=O)O [Example 26, 2-methoxy-6-[({4-[2-(5-methyl-2-phenyl-oxazol-4-yl)-ethoxy]-phenyl}-phenyl-amino)-methyl]-benzoic acid]

From patent US6747049B2, “Oxazole derivatives” (Hoffmann-La Roche Inc., priority 2002, dated 2004)
